Assays:
Assay type in all cases: in vivo
[1] = system: ECHCG (Echinochloa crus-galli); experiment: Pot trial Flufenacet+Dimethenamid-p+Thiencarbazone, first trial, pre-emergence; conditions: g a.i./ha: Flufenacet 12.2 (12.5 in mix), TCM 3, DMTP 50
From the text: (§1) A synergistic effect exists whenever the action of an active ingredient combination is greater than the sum of the actions of the individual components. In the field of agriculture, it is often understood that the term “synergy” is as defined by Colby S. R. in an article entitled “Calculation of the synergistic and antagonistic responses of herbicide combinations” published in the journal Weeds, 1967, 15, p. 20-22. The action expected for a given combination of two active components can be calculated according to Colby as follows: […]
(§2) in which E represents the expected effect, e.g. percentage of pest control, for the combination of the active ingredients at defined doses (for example equal to x and y respectively), A is the effect, e.g. percentage of pest control, observed for the first compound or mixture of compounds at a defined dose (equal to x), B is the effect, e.g. percentage of pest control, observed for the second compound or group of compounds at a defined dose (equal to y).
(§3) Here, efficacy or percent inhibition is determined in %. 0% means efficacy that corresponds to the Control, i.e., as if no treatment had been applied. A percent inhibition of 100% means that complete control is observed. When the percent control observed for the combination (E0) is greater than E, there is a synergistic effect. […]

[2] = system: SETVE (Setaria verticillate); experiment: as above; conditions: g a.i./ha: Flufenacet 12.2 (12.5 in mix), TCM 3, DMTP 50
From the text: as §1, §2, §3

[3] = system: CHEAL (Chenopodium album); experiment: Pot trial Flufenacet+Dimethenamid-p+Thiencarbazone, third trial, post-emergence; conditions: post-emergence (2-3 leaves), g a.i./ha: Flufenacet 75, TCM 18, DMTP 302
From the text: as §1, §2, §3

[4] = system: AMARE (Amaranthus retroflexus); experiment: as above; conditions: post-emergence (2-3 leaves), g a.i./ha: Flufenacet 75, TCM 18, DMTP 302
From the text: as §1, §2, §3

[5] = system: ECHCG (Echinochloa crus-galli); experiment: Pot trial Flufenacet+Dimethenamid-p+Thiencarbazone, second trial, post-emergence; conditions: post-emergence (2-3 leaves), g a.i./ha: Flufenacet 12.2 (12.5 in mix), TCM 3, DMTP 50
From the text: as §1, §2, §3

[6] = system: ECHCG (Echinochloa crus-galli); experiment: Pot trial Flufenacet+Dimethenamid-p+Mesotrione, post-emergence; conditions: post-emergence (2-3 leaves), g a.i./ha: Flufenacet 75, MST 60, DMTP 302
From the text: as §1, §2, §3

[7] = system: AMARE (Amaranthus retroflexus); experiment: as above; conditions: post-emergence (2-3 leaves), g a.i./ha: Flufenacet 75, MST 60, DMTP 302
From the text: as §1, §2, §3

SOLNI (Solanum nigrum) [8] = experiment: Pot trial Dimethenamid-P+Thiencarbazone+Pethoxamid, post-emergence
From the text: as §1, §2
(§4) Here, efficacy or percent inhibition is determined in %. 0% means efficacy that corresponds to the Control, i.e., as if no treatment had been applied. A percent inhibition of 100% means that complete control is observed. When the percent control observed for the combination (E0) is greater than E, there is a synergistic effect. When the percent control observed for the combination (E0) is equal to E, there is an additive effect and wherein the percent control observed for the combination (E0) is lower than E, there is an antagonistic effect.
(§5) First trial: Tank mixes were prepared by combining the formulation with water in order to achieve the desired concentration of each active ingredient, as outlined in Table 19. For this study, individual pots were utilized for sowing the weeds, with each pot containing one weed species, in this case SOLNI (Solanum nigrum) or SETVI (Setaria viridis). Treatments were then applied to each pot at the post-emergence stage of the weeds, ensuring consistent application timing across all treatments. Subsequently, a comprehensive assessment was conducted seven days after application (7DAA) to evaluate the efficacy of each treatment on SOLNI or SETVI.
(§6) Second trial: Tank mixes were prepared by combining the formulation with water in order to achieve the desired concentration of each active ingredient, as outlined in Table 21. For this study, individual pots were utilized for sowing the weeds, with each pot containing one weed species, in this case SOLNI (Solanum nigrum) or SETVI (Setaria viridis). Treatments were then applied to each pot at the post-emergence stage of the weeds, ensuring consistent application timing across all treatments. […]

SETVI (Setaria viridis) [9] = experiment: as above
From the text: as §1, §2, §4, §5, §6

[10] = system: AMAPA (Amaranthus palmeri); experiment: Pot trial Dimethenamid-P+Pethoxamid+Mesotrione, first and second trial, post-emergence
From the text: as §1, §2, §3

[11] = system: AMAPA (Amaranthus palmeri); experiment: Pot trial Dimethenamid-P+Pethoxamid+Mesotrione, third trial, pre-emergence; conditions: g a.i./ha: Petoxamid 360, MST 40, DMTP 200
From the text: as §1, §2, §3

SOLNI (Solanum nigrum) [12] = experiment: Pot trial Dimethenamid-P+Tembotrione+Pethoxamid (Example 6), post-emergence
From the text: as §1, §2, §3

SETVI (Setaria viridis) [13] = experiment: Pot trial Dimethenamid-P+Tembotrione+Pethoxamid (Example 7), post-emergence
From the text: as §1, §2, §3

[14] = system: AMAPA (Amaranthus palmeri); experiment: Pot trial Dimethenamid-P+S-Metolachlor+Mesotrione, post-emergence
From the text: as §1, §2, §3

[15] = first trial, g a.i./ha: PTX 360, TCM/DMTP 159 (one cell)
[16] = second trial, g a.i./ha: PTX 720, TCM/DMTP 318 (one cell)
[17] = second trial, g a.i./ha: PTX 720, TMB 63, DMTP 604.8

For CC(C)N(C(=O)COc1nnc(C(F)(F)F)s1)c1ccc(F)cc1 [Flufenacet], the “efficacy 8DAA ECHCG %” value [1] was 0%, the “efficacy 8DAA SETVE %” value [2] was 0% and the “efficacy 8DAA CHEAL %” value [3] was 0%. For the same compound, the “efficacy 8DAA AMARE %” value [4] was 0%, the “efficacy 8DAA ECHCG %” value [5] was 0% and the “efficacy 8DAA ECHCG %” value [6] was 0%. The “efficacy 8DAA AMARE %” value [7] was 0%.
CCOCCN(C(=O)CCl)C(=C(C)C)c1ccccc1 [Pethoxamid] was tested, and the “efficacy 7DAA SOLNI %” value (SOLNI (Solanum nigrum) [8]; [15]) was 0.00%, the “efficacy 7DAA SOLNI %” value (SOLNI (Solanum nigrum) [8]; [16]) was 1.70% and the “efficacy 7DAA SETVI %” value (SETVI (Setaria viridis) [9]; [15]) was 2.50%. For the same compound, the “efficacy 7DAA SETVI %” value (SETVI (Setaria viridis) [9]; [16]) was 0.00%, the “efficacy 21DAA AMAPA %” value ([10]; first trial, g a.i./ha: Petoxamid 720, MST 60, DMTP 300) was 6.25% and the “efficacy 21DAA AMAPA %” value ([10]; second trial, g a.i./ha: Petoxamid 120, MST 20, DMTP 100) was 0%. The “efficacy 21DAA AMAPA %” value [11] was 52.50%, the “efficacy 7DAA SOLNI %” value (SOLNI (Solanum nigrum) [12]; first trial, g a.i./ha: PTX 120, TMB 10.5, DMTP 100) was 0.00% and the “efficacy 7DAA SOLNI %” value (SOLNI (Solanum nigrum) [12]; [17]) was 1.70%. The “efficacy 7DAA SETVI %” value (SETVI (Setaria viridis) [13]; first trial, g a.i./ha: PTX 360, TMB 10.5, DMTP 100.8) was 2.50% and the “efficacy 7DAA SETVI %” value (SETVI (Setaria viridis) [13]; [17]) was 0.00%.
CCc1cccc(C)c1N(C(=O)CCl)[C@@H](C)COC [S-metolachlor] was tested, and the “efficacy 18DAA AMAPA %” value ([14]; first trial, g a.i./ha: S-MOc 144, MST 20, DMTP 100) was 0.00% and the “efficacy 18DAA AMAPA %” value ([14]; second trial, g a.i./ha: S-MOc 288, MST 40, DMTP 200) was 0.00%.
